According to the supplement of paper PMC10477900:
pIC50: −log10 of the molar value. Counter-ions that a name gives are not always drawn.

Key:
HCT116 [1] = settings: 72 h
Protocol: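 HCT116 control and MTA1-KO (CRISPR) HCT116 cells were seeded in 384-well plates (800 cells/well), treated 16 h later with 237 metabolism-related anticancer drugs at five doses (10 uM, 2 uM, 400 nM, 80 nM, 16 nM) for 72 h, two replicates; viability by CCK8. Values are % inhibition of viability relative to untreated cells, plus fitted IC50.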

HCT116 [2] = assay: viability inhibition vs untreated; higher = more cytotoxic; settings: 72 h

Row | Compound | pIC50 (HCT116 [1]; genotype: MTA1-KO) | pIC50 (HCT116 [1]; genotype: control) | viability inhibition (HCT116 [2]; genotype: MTA1-KO, 16 nM) | viability inhibition (HCT116 [2]; genotype: MTA1-KO, 80 nM) | viability inhibition (HCT116 [2]; genotype: MTA1-KO, 400 nM) | viability inhibition (HCT116 [2]; genotype: MTA1-KO, 2000 nM) | viability inhibition (HCT116 [2]; genotype: MTA1-KO, 10000 nM) | viability inhibition (HCT116 [2]; genotype: control, 16 nM) | viability inhibition (HCT116 [2]; genotype: control, 80 nM) | viability inhibition (HCT116 [2]; genotype: control, 400 nM) | viability inhibition (HCT116 [2]; genotype: control, 2000 nM) | viability inhibition (HCT116 [2]; genotype: control, 10000 nM)
1 | CO[C@@H](C)Cn1c(=O)n(C)c2cnc3ccc(-c4cncc(C(C)(C)O)c4)cc3c21 | 6.54 | 6.42 | -8.01% | 27.7% | 58.8% | 90.6% | 102% | -0.225% | -9.63% | 58.5% | 90.9% | 104%
2 | CC(C)n1c(/C=C/[C@H](O)C[C@H](O)CC(=O)O)c(-c2ccc(F)cc2)c2ccccc21 (racemic) [Fluvastatin sodium salt] | 5.05 | < 5.00 | 12.1% | 16.7% | 12.8% | 19.3% | 60.4% | 5.71% | 10.5% | 12.1% | 38% | 32.9%
3 | NC(N)=O [Urea] | < 5.00 | < 5.00 | -19% | -12.8% | -10.1% | -15.4% | -12.3% | 5.26% | 1.82% | -7.36% | 3.6% | -3.54%
4 | CC(C)(C)c1cc(O)ccc1O [TBHQ] | < 5.00 | < 5.00 | -1.6% | -25.5% | -23.4% | -13.4% | 41.7% | 16.6% | 25.3% | 20.9% | 17.7% | 17%
5 | CCCCCCCCCCC[C@@H](C[C@@H]1OC(=O)[C@H]1CCCCCC)OC(=O)[C@H](CC(C)C)NC=O [Orlistat] | < 5.00 | < 5.00 | -6.57% | -2.27% | -2.16% | -13.4% | 15.7% | 4.58% | -13.3% | -7.69% | -2.81% | 37%
6 | O=C(O)CCCCC(CCSCc1ccccc1)SCc1ccccc1 (stereo unspecified) [CPI613] | < 5.00 | < 5.00 | -15.7% | -15.1% | -22.2% | -25.4% | -7.62% | 7.59% | -3.09% | -6.23% | -6.02% | 8.56%
7 | CC(C)n1nc(-c2cc3cc(O)ccc3[nH]2)c2c(N)ncnc21 [Torkinib] | < 5.00 | 5.09 | -28.4% | -28.6% | -28.2% | -9.28% | 27.1% | -1.58% | -1.28% | -0.73% | 8.7% | 65.9%
8 | CC1(C)CC[C@]2(C(=O)O)CC[C@]3(C)[C@H](C(=O)C=C4[C@@]5(C)C=C(C#N)C(=O)C(C)(C)[C@@H]5CC[C@]43C)[C@@H]2C1 [Bardoxolone] | 5.52 | 5.60 | 6.64% | -8.28% | -9% | 44.1% | 103% | -7.41% | -6.83% | -2.5% | 40.7% | 103%
9 | COCCNC(=O)Nc1ccc2nc(-c3cccs3)c(-c3cccs3)nc2c1 [Ac-CoA Synthase Inhibitor1] | < 5.00 | < 5.00 | -8.17% | 14.9% | 15% | 10.1% | 6.2% | 3.53% | 9.39% | -0.277% | -10.1% | 8.5%
10 | CC1(C)OCCn2c1nc1c(N3CCOCC3)nc(-c3cnc(N)nc3)nc12 [GDC0084] | 6.49 | 6.45 | -2.94% | 9.67% | 48% | 77.1% | 83.3% | 7.86% | 5.85% | 42.9% | 78.2% | 76.1%
11 | O=C(Oc1cc(S(=O)(=O)c2ccccc2)ccc1[N+](=O)[O-])c1ccc(Cl)cc1 | < 5.00 | < 5.00 | 13.8% | 11.7% | 15.7% | 20% | -32.5% | -2.81% | -4.51% | -7.2% | -8.31% | 16.7%
12 | NCCCC(N)(C(=O)O)C(F)F (stereo unspecified) [Eflornithine hydrochloride Monohydrate] | < 5.00 | 5.02 | -16.1% | -27.6% | -24% | -21.9% | -20.4% | 11.3% | 1.76% | -3.16% | 0.852% | 61.6%
13 | Nc1nc2[nH]cc(CCc3ccc(C(=O)N[C@@H](CCC(=O)O)C(=O)O)cc3)c2c(=O)[nH]1 [Pemetrexed Disodium Hydrate] | 5.77 | < 5.00 | -0.998% | 0.351% | -2.35% | 34.3% | 60.9% | -14.7% | -8.65% | -11.7% | -6.77% | 5.15%
